Source: patent US11071550B2, “Methods and devices for treating pancreatitis” (priority 2017, dated 2021)
Each block holds one compound with its values, some of them ahead of it.

How the values were obtained:
mouse pancreas [1] = tested on: mouse pancreas
monkey pancreas = conditions: 1% acetic acid
Description: Cynomologus monkeys can be used to study the retrograde infusion protocol in primates. […] The Cynomologus monkeys are first quarantined for 30 days, then transferred to the primate facility and given a 1 to 2-week acclimatization period before operating. After acclimatization, the animals undergo a laparotomy and duodenotomy with cannulation of the ampulla of Vater and temporary clamping of the common bile duct to prevent perfusion of the liver (additional details below).
Fluoroscopic dye can also be infused to confirm the location and positioning of the catheter (FIGS. 12A and 12B). […] The catheter and clamp are then removed and the surgery completed.
Cynomologus infusion procedure details: After induction of general anesthesia, the abdomen is prepped and draped and a 10 to 12 centimeter upper abdominal midline incision created. The duodenum is fully mobilized out of the retroperitoneum and a non-crushing clamp applied to the common bile duct to prevent the composition from perfusing the bile duct and liver. A two centimeter duodenotomy is then created to expose the ampulla of Vater, which is cannulated with a 2.8 French double lumen umbilical artery catheter. A clamp is then placed on the minor papilla and catheter to prevent back leaking of the composition. […]
During the 3 to 6-week period between the procedure and the sacrifice, Cynomologus monkeys are supplied with CREON enzymes as a dietary supplement to avoid malabsorption due to loss of acinar enzyme production by the pancreas. […] Throughout the 3 to 6-week period, the Cynomologus monkeys are monitored for scleral icterus as a sign of possible biliary obstruction due to bile duct structuring caused by the infusion.
At harvest, the pancreas and duodenum are examined grossly in situ, and then removed en bloc along with the common bile duct. […] In addition, beta cell mass is calculated based on the percent insulin positive area on histology along with the gross weight of the pancreas.

[2] = tested on: ligated tail of the pancreas
Description: Mouse pancreatic duct ligation (PDL) yields a model that is reflective of chronic pancreatitis with progressive loss of islet tissue. In the PDL procedure, the pancreatic duct is ligated at the mid-point of the pancreas (FIG. 4, right image). Thus, only the distal half (tail) of the pancreas is affected since the ligation is positioned at the mid-point of the duct. […] FIGS. 5A-5E show insulin staining using DAB, whereas FIGS. 5F-5J show insulin and amylase staining using immunofluorescence (with a Hoescht counterstain for labeling cell nuclei).
The negative effects of a pancreatitis milieu on β-cell function are well known (17).
Five repeats are analyzed in each condition. […] Significance is considered when p<0.05.

Mouse islets = assay: In vitro static glucose stimulated insulin secretion (GSIS) of isolated islets
mouse pancreas [3] = tested on: mouse pancreas; remark: listed apart in the source
[4] = 100% ethanol infused at 8 weeks post-PDL
[5] = 100% ethanol, 1, 3, 6, 9 months

islets (histology) (mouse pancreas [1]; 1% acetic acid): remained intact
open field testing: rearing (time pressed) vs sham group (mouse pancreas [1]; 1% acetic acid): not significantly different
pain (mouse pancreas [1]; 1% acetic acid, conclusion from open field testing): does not cause pain
open field testing: distance traveled vs sham group (mouse pancreas [1]; 1% acetic acid, distance in meters): not significantly different
recovery from the infusion procedure (monkey pancreas; e.g. 7 milliliters at 500 centimeters of water): recover well
islets (H&E) (monkey pancreas; three weeks after infusion): intact islets
SMILES: CC(=O)O [acetic acid]
immunohistochemistry of treated pancreatic tissue (insulin, amylase) (mouse pancreas [1]; 1% acetic acid): insulin positive and amylase negative
exocrine tissue (mouse pancreas [1]; 1% acetic acid, 6 months (FIG. 7)): ablation of the exocrine tissue
ablation of the exocrine pancreas (monkey pancreas; three weeks after infusion): ablation of the exocrine pancreas in the head and body of the pancreas, and part of the tail

SMILES: CCO [ethanol]
fasting glucose levels vs sham operated controls (mouse pancreas [1]; Example 2, all time points): no difference
glucose tolerance tests vs sham operated controls (mouse pancreas [1]; Example 2, all time points): no difference
loss of islets in the pancreatic tail [2, 4]: prevents the loss of islets in the pancreatic tail
recurrent inflammation [2, 4]: no detectable recurrent inflammation
regeneration of acinar cells ([2]; 100% ethanol infused at 8 weeks post-PDL, insulin and amylase staining): no detectable regeneration of acinar cells
β-cell mass in the ligated tail ([2]; PDL + ethanol infusion at 8 weeks, 24 weeks, mean±SEM): 0.61±0.01 milligrams
fasting blood glucose levels vs PDL and sham operated ([2]; PDL+ethanol-infused, 24 weeks): no different
glucose tolerance testing vs PDL and sham operated ([2]; PDL+ethanol-infused, 24 weeks): no different
jaundice rates ([2]; male, C57BL/6, mouse, in vivo): less than 5%
insulin secretion by islets from the pancreatic tail (in vitro GSIS) (Mouse islets; PDL+ethanol-infused tail islets, per 200 islets, low or high glucose, vs sham): normal insulin secretion pattern
endocrine function: in vitro glucose-stimulated insulin secretion (GSIS) (Mouse islets; islets from 100% ethanol-infused mice, 9-month time point): appears normal
time to significant levels of ethanol in the blood after infusion (mouse pancreas [3]; 100% ethanol pancreatic ductal infusion): ≤ 5 min
pancreatic acinar tissue upon sacrifice (mouse pancreas [3]; 100% ethanol, 100 microliters, sacrifice at 1, 3, 6, 9 months): no evidence of pancreatic acinar tissue
amylase (AMY) staining (mouse pancreas [3]; [5]): absent at all time points
pancreatic endocrine tissue (β-cells and alpha cells) (mouse pancreas [3]; [5]): well-preserved
endocrine function: in vivo insulin levels during glucose tolerance testing (mouse pancreas [3]; 100% ethanol, 9-month time point): appears normal
islet vasculature (CD31 staining) (mouse pancreas [3]; 100% ethanol, 9 months): appears to be intact
fasting glucose levels vs sham-operated controls (mouse pancreas [3]; 100% ethanol, all time points): no difference
glucose tolerance tests vs sham-operated controls (mouse pancreas [3]; 100% ethanol, all time points): no difference
body weight vs controls (mouse pancreas [3]; 100% ethanol, elemental diet): not different from controls
β-cell mass vs sham-operated (mouse pancreas [3]; 100% ethanol, pancreatic tail, any time point): no significant difference
